{"source": "paper PMC6838110", "about": "(Nature Communications, 2019)", "key": {"OV2022 ovarian PDX": {"system": "OV2022 ovarian PDX", "assay": "PDX efficacy study", "assay_type": "in vivo, mice", "settings": "AZD7648 single agent", "procedure": "(§1) Immunocompromised SCID (C.B-17/IcrHan®Hsd-Prkdc^scid) or Hsd:Athymic Nude-Foxn1^nu female mice (Envigo) were used for tumour implantation. […] When dosed twice daily, the time between the morning and evening doses was 8 h. Targeted irradiation of 2 Gy was delivered over 2 min daily over the first 5 days of treatment. Liposomal doxorubicin (Doxoves) was diluted in physiological saline and intravenously dosed at 2.5 or 5 mg kg^−1 once per week. Olaparib was formulated in 10% DMSO/30% Kleptose and orally dosed at 100 mg kg^−1 once daily. […] Statistical significance was evaluated using a one-tailed t-test. All in vivo studies complied with all relevant ethical regulations for animal testing and research, followed AstraZeneca’s global bioethics policy and received ethical approval from the AstraZeneca ethical committee. HBCx-17 PDX study was carried out at XenTech, France in accordance with French regulatory legislation concerning the protection of laboratory animals. CTG-703, CTG-0828 and CTG-0149 PDX studies were carried out at Champions Oncology, Inc., USA in accordance to the guidelines of the Institutional Animal Care and Use Committee (IACUC) of Champions Oncology and the USA regulatory legislation. CDX and OV2022 PDX studies were conducted in the UK in accordance with UK Home Office legislation, the Animal Scientific Procedures Act 1986 and the Home Office project licences 70/8839, 70/8894 and P0EC1FFDF. […]\n(§2) SCID mice were surgically implanted subcutaneously with tumour fragments from donor mice. Tumours were measured (length x width) by bilateral Vernier calliper measurements and tumour volume calculated using Mousetrap software. Mice were randomized into […]\n(§3) treatment groups when mean tumour volume reached ~0.2 cm 3. AZD7648 was formulated in 0.5% hydroxypropyl methylcellulose (HPMC)/0.1% Tween80 (HPMC/T) and orally dosed (4–100 mg/kg). When dosed twice daily (bid), the time between the morning and evening doses was 8 hours. Targeted irradiation of 2 Gy was delivered over 2 minutes daily over the first 5 days of treatment. Liposomal doxorubicin (Doxoves) was diluted in physiological saline and intravenously dosed at 2.5 or 5 mg/kg once per week. Olaparib was formulated in 10% DMSO/30% Kleptose and orally dosed at 100 mg/kg once daily.\n(§4) HPMC/T. Tumour growth inhibition from start of treatment was assessed by co mparison of the mean change in tumour volume for the control and treated groups, using the Mousetrap application and represented as tumour growth inhibition (TGI). Statistical significance was evaluated using a one-tailed t-test. HBCx-17 PDX study was carried out at XenTech, France in accordance with French regulatory legislation concerning the protection of laboratory animals. CTG-703, CTG-0828 and CTG-0149 PDX studies were carried out at Champions Oncology, Inc., USA in accordance to the guidelines of the Institutional Animal Care and Use Committee (IACUC) of Champions Oncology and the USA regulatory legislation. CDX and OV2022 PDX studies were conducted in the UK in accordance with UK Home Office legislation, the Animal Scientific Procedures Act 1986, and AstraZeneca’s global bioethics policy. Experimental details are outlined in Home […]\n(§5) Blood samples were taken via venipuncture of the tail vein. Whole blood was mixed 1: 5 with PBS and centrifuged at 1500g for 3 minutes at 4°C, and the plasma was extracted […]\n(§6) was prepared using an appropriate dilution factor and compared against an 11-point standard calibration curve (1–10,000 nM) prepared in DMSO and spiked into bl ank plasma. Acetonitrile (100 µL) was added with the internal standard, followed by centrifugation at 3000 rpm for 10 minutes. Supernatant (50 µL) was then diluted in 300 µL water and analysed with ultra-performance liquid chromatography–tandem mass […]\n(§7) Xenograft sample preparation\n(§8) Animals were euthanized and tumour samples snap frozen in liquid nitrogen or fixed in formalin and paraffin embedded for subsequent analysis. Tumour pieces were lysed in […]"}, "CTG-0149 H&N PDX": {"system": "CTG-0149 H&N PDX", "assay": "PDX efficacy study", "assay_type": "in vivo, mice", "settings": "AZD7648 single agent", "procedure": "as §1, §2, §3, §4, §5, §6, §7, §8"}, "CTG-703 ovarian PDX": {"system": "CTG-703 ovarian PDX", "assay": "PDX efficacy study", "assay_type": "in vivo, mice", "settings": "AZD7648 single agent", "procedure": "as §1, §2, §3, §4, §5, §6, §7, §8"}, "CTG-0828 NSCLC PDX": {"system": "CTG-0828 NSCLC PDX", "assay": "PDX efficacy study", "assay_type": "in vivo, mice", "settings": "AZD7648 single agent", "procedure": "as §1, §2, §3, §4, §5, §6, §7, §8"}, "HBCx-17 TNBC PDX": {"system": "HBCx-17 TNBC PDX", "assay": "PDX efficacy study", "assay_type": "in vivo, mice", "procedure": "as §1, §2\ntreatment groups when mean tumour volume reached ~0.2 cm 3."}, "[1]": {"system": "BT474 breast cancer xenografts", "assay": "Xenograft efficacy study with liposomal doxorubicin", "assay_type": "in vivo, mice", "settings": "AZD7648 37.5 mg kg−1 bid × 28 days, single agent", "procedure": "as §1, with “legislation.” for “legislation. CDX and OV2022 PDX studies were conducted in the UK in accordance with UK Home Office legislation, the Animal Scientific Procedures Act 1986 and the Home Office project licences 70/8839, 70/8894 and P0EC1FFDF.”\nTumours were measured (length x width) by bilateral Vernier calliper measurements and tumour volume calculated using Mousetrap software. […]"}, "FaDu ATM KO cells": {"system": "FaDu ATM KO cells", "assay": "Cell proliferation (GI50), Live/Dead assay", "assay_type": "cell-based", "settings": "Homo sapiens, read-out: GI50 (near 50% of maximal inhibition of cell proliferation)", "excerpt": "by Live/Dead assay in A) UWB1.289 and UWB1.289 complemented with wild-type BRCA1 (UWB1.289 + BRCA1), DLD1 and DLD1 with the BRCA2 gene knocked out (DLD1 BRCA2 KO), and B) FaDu and A549 cells with the ATM gene knocked out (ATM KO) compared with their WT counterpart. Graphs represent percentage viable cells ± SD following 7 days’ treatment relative to DMSO vehicle-treated controls from one representative experiment of at least three independent experiments. Tables describe […]\nand A549 ATM KO cells compared with their WT counterparts following 7 days’ treatment.\nMean pGI50 (–log [GI50]) ± SEM, geometric mean GI50, number of experimental repeats (n) and 95% confidence interval are described. C) Colony formation assay was performed on FaDu and A549 ATM KO and WT cells treated with increasing concentrations of olaparib. Graphs represent percentage surviving fraction of colonies ± SD following 10– 14 days’ treatment relative to DMSO vehicle-treated control from one representative experiment of three independent experiments. […] Mean pIC50\n± SEM, geometric mean IC50, number of experimental repeats (n) and 95% confidence […]\n8–14 days or with increasing concentrations of olaparib. Cell colonies were washed with […]\nMean surviving colonies were calculated from three technical replicates. […]\nbefore survival fraction was calculated. […]\nand quantified using the Acumen ® Cellista (TTP Labtech). […]"}}, "data": [{"smiles": "Cc1cc2ncnn2cc1Nc1ncc2c(n1)n(C1CCOCC1)c(=O)n2C", "note": "[AZD7648]", "values": [{"measurement": "TGI", "setting": "OV2022 ovarian PDX", "result": "60–80%"}, {"measurement": "TGI", "setting": "CTG-0149 H&N PDX", "result": "60–80%"}, {"measurement": "TGI", "setting": "CTG-703 ovarian PDX", "result": "60–80%"}, {"measurement": "TGI", "setting": "CTG-0828 NSCLC PDX", "result": "too variable to assess the group effect"}, {"measurement": "TGI", "setting": "HBCx-17 TNBC PDX; AZD7648 75 mg kg−1 bid single agent (olaparib study)", "result": 65, "unit": "%"}, {"measurement": "TGI", "setting": "HBCx-17 TNBC PDX; AZD7648 single agent (doxorubicin study)", "result": 25, "unit": "%"}, {"measurement": "TGI", "setting": "[1]", "result": 20, "unit": "%"}, {"measurement": "GI50", "setting": "FaDu ATM KO cells", "result": "~600", "unit": "nM"}]}]}
